Reference: patent publication US20260027068A1, “METHODS OF ADM[…]-KETAMINE” (Perception Neuroscience, Inc., priority 2022, published 2026)

Assays:
[1] = Phase 1 single ascending dose plasma pharmacokinetics of 40-minute IV infusion of R(−)-ketamine and its metabolites; details: for Tmax: all dose levels 5 mg to 150 mg; for AUC(0-inf) / Cmax / AUC(0-t): iv
Description: This was a Phase 1 randomized, placebo-controlled, double-blind, single dose study conducted at one center. […] The pharmacokinetic (PK) population was 36 subjects, with 12 additional subjects receiving placebo. […] Subjects were male or female healthy subjects, 18 to 65 years of age. […] Cohort 1 was dosed at 5 mg, followed by Cohort 2 at 15 mg, Cohort 3 at 30 mg, Cohort 4 at 60 mg, Cohort 5 at 100 mg, and Cohort 6 at 150 mg R(−)-ketamine. […] In addition to the safety and tolerability data, the study also evaluated the dose-related PK of each 40-minute IV infusion of R(−)-ketamine.
To evaluate the pharmacokinetics of R(−)-ketamine, blood was drawn from subjects for PK analysis at the following sampling times: pre-dose (−30 minutes); and from the start of infusion (5, 10, and 15 minutes [±1 minute], 30 minutes [±5 minutes], 40 minutes [immediately prior to infusion completion], 1, 1.5, 2, and 3 hours [±5 minutes], 4 and 8 hours [±10 minutes], 12 and 24 hours [±15 minutes]).
Plasma PK parameters of R(−)-ketamine and its metabolites (norketamine, 6-hydroxynorketamine, and dehydronorketamine) evaluated on include the following: • Maximum plasma concentration (Cmax), • Time to Cmax (Tmax), • Area under the plasma concentration curve (AUC0-t, AUC0-∞) • Elimination rate constant (λz), • Half-live (t½) • Clearance (CL, P R(−)-ketamine only), • Volume of distribution (Vz, R(−)-ketamine only), and • Metabolite to parent ratios (area under curve [AUC] and Cmax).
The dose proportionality was assessed both visually and statistically using calculated Cmax and AUC values. […] Continuous variables: Descriptive statistics included the number of non-missing values (n), arithmetic mean, standard deviation (SD), median, minimum, and maximum values. […] For PK concentration data, the number of non-missing values, number of below limit of quantification (BLQ) values, arithmetic mean, SD, median, minimum, maximum, coefficient of variation (CV %), geometric mean, and geometric CV (geo CV %) values are presented. For PK parameter data, the number of non-missing values, arithmetic mean, SD, median, minimum, maximum, CV %, geometric mean, and geometric CV (geo CV %) values are presented.
Intravenous administration of allocated blinded study drug (Morning, Day 1) was infused over 40 minutes. Blood collection for plasma PK analysis occurred at infusion 5, 10, 15, 30, 40, 60, and 90 minutes, and 2, 3, 4, 8, and 12 hours after the start of infusion.
Plasma concentrations of R(−)-ketamine and its metabolites norketamine, 6-hydroxynorketamine, and dehydronorketamine were determined using a suitable validated analytical method with a lower limit of quantitation (LOQ) of 1 ng/mL.
The linearity of the increase in exposure with respect to the increasing dose administered was evaluated for Cmax and AUC for R(−)-ketamine and its metabolites (norketamine, 6-hydroxynorketamine and dehydronorketamine). […] The power model was used to estimate the slope parameter and the 90% confidence intervals for the slope.

[2] = tested on: rats; assay: Anhedonic or negative affective side effects
[3] = tested on: phencyclidine site of the N-methyl-D-aspartate (NMDA) receptor; details: phencyclidine site; cited from earlier work
[4] = in vivo; cited from earlier work
[5] = tested on: TRD patients; details: 15 mg; cited from earlier work
[6] = 5 mg R(−)-ketamine IV over 40 minutes, plasma
[7] = 150 mg R(−)-ketamine IV over 40 minutes, plasma

Structure (SMILES): NC1(c2ccccc2Cl)CCCC(O)C1=O (stereo not shown) [6-hydroxynorketamine]
- Arithmetic mean AUC0-24h ([1]; 5 mg R(−)-ketamine IV): 110 ng·h/mL
- Arithmetic mean AUC0-t ([1]; 5 mg R(−)-ketamine IV): 110 ng·h/mL
- Arithmetic mean Cmax [1, 6]: 5.98 ng/mL
- Arithmetic mean AUC0-24h ([1]; 150 mg R(−)-ketamine IV): 3000 ng·h/mL
- Arithmetic mean AUC0-t ([1]; 150 mg R(−)-ketamine IV): 3000 ng·h/mL
- Arithmetic mean Cmax [1, 7]: 165 ng/mL
- Metabolite/R(−)-ketamine ratio based on AUC0-24h, arithmetic mean ([1]; across 5 mg to 150 mg cohorts): 2.22
- Metabolite/R(−)-ketamine ratio based on AUC0-t, arithmetic mean ([1]; across 5 mg to 150 mg cohorts): 2.22

Structure (SMILES): N[C@@]1(c2ccccc2Cl)CCC[C@@H](O)C1=O [R-hydroxynorketamine]
- Anhedonic or negative affective side effects [2]: no anhedonic or negative affective side effects

Structure (SMILES): CN[C@]1(c2ccccc2Cl)CCCCC1=O [S(+)-ketamine, reference compound]
- Binding affinity relative to R(−)-ketamine [3]: approximately 4 times
- Side effects (hyperlocomotion, prepulse inhibition deficit, drug dependence) [4]: induced side effects such as a hyperlocomotion, prepulse inhibition deficit, and drug dependence
- Antidepressant effect [5]: robust antidepressant effect

Structure (SMILES): NC1(c2ccccc2Cl)CCC=CC1=O (stereo not shown) [dehydronorketamine]
- Arithmetic mean AUC0-24h ([1]; 5 mg R(−)-ketamine IV): 2.5 ng·h/mL
- Arithmetic mean AUC0-t ([1]; 5 mg R(−)-ketamine IV): 1.37 ng·h/mL
- Arithmetic mean Cmax [1, 6]: 0.198 ng/mL
- Arithmetic mean AUC0-inf ([1]; 15 mg R(−)-ketamine IV): 16.3 ng·h/mL
- Fold increase in AUC0-inf ([1]; 15 mg to 150 mg (10-fold increase in dose)): 35.3 fold
- Arithmetic mean AUC0-24h ([1]; 150 mg R(−)-ketamine IV): 424 ng·h/mL
- Arithmetic mean AUC0-inf ([1]; 150 mg R(−)-ketamine IV): 576 ng·h/mL
- Arithmetic mean AUC0-t ([1]; 150 mg R(−)-ketamine IV): 424 ng·h/mL
- Arithmetic mean Cmax [1, 7]: 35.6 ng/mL
- Stability in the samples ([1]; PK samples): not stable in the samples

Structure (SMILES): NC1(c2ccccc2Cl)CCCCC1=O (stereo not shown) [norketamine]
- Metabolite/R(−)-ketamine ratio based on Cmax, arithmetic mean ([1]; across 5 mg to 150 mg cohorts): 0.448
- half-life ([1]; both, human, plasma, intravenous): 6.7 to 8.05 h
- Tmax ([1]; both, human, plasma, intravenous, Approximate median plasma Tmax): ~1 h
- Tmax ([1]; both, human, plasma, intravenous, Plasma Tmax range (mixed units as printed)): 0.667 to 2 h
- AUC(0-inf) ([1]; both, human, plasma, 5 mg): 79.1 ng·h/mL
- Cmax ([1]; both, human, plasma, 5 mg): 11.4 ng/mL
- AUC(0-t) ([1]; both, human, plasma, 5 mg, Arithmetic mean AUC0-24h, 5 mg R(−)-ketamine IV): 79.6 ng·h/mL
- AUC(0-t) ([1]; both, human, plasma, 5 mg, Arithmetic mean AUC0-t, 5 mg R(−)-ketamine IV): 78 ng·h/mL
- AUC(0-inf) ([1]; both, human, plasma, 150 mg): 3530 ng·h/mL
- Cmax ([1]; both, human, plasma, 150 mg): 360 ng/mL
- AUC(0-t) ([1]; both, human, plasma, 150 mg, Arithmetic mean AUC0-24h, 150 mg R(−)-ketamine IV): 3140 ng·h/mL
- AUC(0-t) ([1]; both, human, plasma, 150 mg, Arithmetic mean AUC0-t, 150 mg R(−)-ketamine IV): 3140 ng·h/mL
